Reference: publication PMC10548421, “Anticancer Potential of Diruthenium Complexes with Bridging Hydrocarbyl Ligands from Bioactive Alkynols” (Inorganic Chemistry, 2023)
Where two headings read alike, the source gives them in different places.

Columns and labels:
A2780 cells [1] = assay: Apoptosis, Annexin V/propidium iodide flow cytometry; format: cell-based, human; conditions: A2780, 4 μM, 24 h
Procedure: (§1) The A2780 ovarian carcinoma cell line was received from Merck (reference 93112519–1VL) and cultured at 37 °C in an environment with 5% CO2. The cultivation was carried out in complete cell culture medium (RPMI-1640 medium, Merck), which was supplemented with 10% fetal bovine serum (FBS, Merck), 1% L-glutamine (Merck) and 1% penicillin–streptomycin–neomycin (PSN, Merck). For the flow cytometry experiments, three independent duplicates were analyzed using a BD FACSVerse flow cytometer (Becton Dickinson, USA). At least 5 × 10^3 events were recorded for each sample. The same procedure was replicated for the experiments described below. Solutions of the complexes were formulated using the stock solutions (Section 5.1).
Apoptosis assay was performed using an Annexin V-FITC/PI commercial kit (V13242, Thermo Fisher Scientific, USA), while caspase 3/7 activation assay was performed with a CellEvent Caspase-3/7 Green Flow Cytometry Assay Kit (C10427, Thermo Fisher Scientific, USA). A2780 cells were seeded in 24-well plates at a density of 5 × 10^4 cells per well; after 24 h, the cells were exposed to 4 μM solution of the selected complex for 24 h. […] The supernatant was collected, cells were washed with PBS (0.1 M, pH 7.4), and trypsin was added (0.25% trypsin-EDTA, GibcoTM). Finally, complete cell culture medium was added to stop the trypsinization, and a final volume of 500 μL was divided into two 250 μL aliquots, following the protocol provided by the manufacturer. Samples were centrifuged, treated with the respective buffers, and then incubated in the dark at room temperature for 10 min (Annexin V-FITC/PI) or at 37 °C for 30 min (CellEventTM Caspase-3/7 Green Detection Reagent).

[2] = Octanol/water partition coefficient, shake-flask with UV–vis; format: physicochemical; conditions: 21 °C
Procedure: Partition coefficients (Pow), defined by the formula Pow = corg/caq, wherein corg and caq denote the molar concentrations of the specific compound in octanol and aqueous phases, respectively, were obtained using the shake-flask method with UV–vis measurements, following a previously described procedure (Table 3).[98] All the operations were carried out at 21 ± 1 °C. The wavelength corresponding to the maximum absorption of each compound within the range 350–430 nm was employed for quantifying using UV–vis techniques.

[3] = Stability in H2O/CH3OH solution (UV–vis); format: physicochemical; conditions: ca. 5:1 v/v
Procedure: […] The percentage of remaining complex in the solution was calculated by considering the change in absorbance at the characteristic wavelength. The identical procedure was employed to evaluate stability in MeOH and DMEM (about 1:5 v/v) solutions. DMEM stands for the cell culture medium (containing 1000 mg/L glucose and L-glutamine, excluding sodium bicarbonate and phenol red; reference D2902-Merck).

[4] = system: MRC-5 normal human lung fibroblast cell line; assay: MTT in vitro cytotoxicity, MRC-5 (selectivity); format: cell-based; conditions: for IC50: normal cells, MTT, incubation 24 h, mean ± SD
Procedure: (§2) The cytotoxicity assessment was conducted on various human cancer cell lines, including A2780 ovarian carcinoma, A2780R cisplatin-resistant ovarian carcinoma, MCF-7 breast, HOS osteosarcoma, A549 epithelial lung, PANC-1 pancreatic, Caco-2 colorectal, PC-3 prostate adenocarcinoma, and HeLa cervical cell lines. Additionally, the assessment extended to a normal human fetal fibroblast cell line (MRC-5). Cells were obtained from ATCC collection and cultivated according to the producer’s instructions. Stock solutions of the compounds were prepared in DMF immediately before application, and diluted with H2O to achieve the final concentration of 0.1% v/v DMF.[99] The culture media were enriched with 10% fetal calf serum. Subsequently, the cells were exposed to the tested compounds, vehicle (0.1% v/v DMF) and Triton X-100 (1% v/v), during incubation. The conventional MTT assay was carried out following different incubation periods (Tables 5-6). The absorbance was measured at 570 nm by using a spectrophotometer (Infinite M200, Schoeller Instruments, Prague, Czech Republic). The obtained data are presented as the percentage of cell viability with 100% representing negative control treatment (0.1% v/v DMF) and 0% representing the positive control (Triton X-100). The half-maximal inhibitory concentrations (IC50) were determined from dose–response curves using GraphPad Prism 6 software (GraphPad Software, San Diego, USA).

[5] = system: A2780 human ovarian carcinoma cell line; assay: MTT in vitro cytotoxicity, A2780; format: cell-based
Procedure: as §2

A2780 cells [6] = assay: Cell cycle analysis (flow cytometry, PI); format: cell-based, human; conditions: A2780, 4 μM, 24 h
Procedure: as §1
These studies were conducted on A2780 cells using the BD Cycletest Plus DNA kit (from Becton Dickinson, USA). Thus, cells were seeded in 96-well plates (10^4 cells/well) and treated with 4 μM complexes 3a and 3b for 24 h. Following the incubation period, cells underwent a series of procedural steps. Initially, they were rinsed using PBS (0.1 M, pH 7.4). […]

[7] = system: PC-3 human prostate carcinoma cell line; assay: MTT in vitro cytotoxicity, PC-3; format: cell-based; conditions: incubation 24 h, mean ± SD
Procedure: as §2

[8] = system: PANC-1 human pancreatic carcinoma cell line; assay: MTT in vitro cytotoxicity, PANC-1; format: cell-based; conditions: incubation 24 h, mean ± SD
Procedure: as §2

[9] = system: A549 human lung adenocarcinoma cell line; assay: MTT in vitro cytotoxicity, A549; format: cell-based; conditions: incubation 24 h, mean ± SD
Procedure: as §2

[10] = system: HOS human osteosarcoma cell line; assay: MTT in vitro cytotoxicity, HOS; format: cell-based; conditions: incubation 24 h, mean ± SD
Procedure: as §2

A2780 cells [11] = assay: ROS production assessment (ROS-ID); format: cell-based, human; conditions: A2780, 4 μM, 24 h
Procedure: as §1
ROS-ID Total ROS/Superoxide detection kit (from Enzo Life Sciences, US) was employed to quantify ROS and superoxide generation in A2780 cells following the treatment with the tested compounds. Thus, cells were seeded in a 96-well plate (10^4 cells/well) and incubated with 4 μM solution of complexes for 24 h. A 100 μM solution of pyocyanin, which is a known oxidative-stress inducer, was used as a positive control. […] Finally, a microplate reader Infinite M200Pro (Tecan, Switzerland) was used to measure sample fluorescence (green: Ex. 488 nm/Em. 520 nm, and red: Ex. 550 nm/Em. 610 nm) and three independent experiments were done in triplicates.

[12] = MTT, incubation 24 h, mean ± SD (Table 5), read-out: IC50 A2780
[13] = time-course experiment (Table 6), 24 h, mean ± SD, read-out: IC50 A2780, incubation time 24 h
[14] = time-course experiment (Table 6), 48 h, mean ± SD, read-out: IC50 A2780, incubation time 48 h
[15] = time-course experiment (Table 6), 72 h, mean ± SD, read-out: IC50 A2780, incubation time 72 h

Compound: CC12CCC3c4ccc(O)cc4CCC3C1CCC2=C=[CH][Ru]1(=[C]=O)([CH]2C=CC=C2)[C](=O)[Ru+]1(=[C]=O)[CH]1C=CC=C1.F[B-](F)(F)F (mixture of isomers) [3b, [Ru2Cp2(CO)3{μ–η^1:η^2-CH=C=(estradiolylidene)}]BF4]
- proapoptotic effect, Annexin V/PI (in words) (A2780 cells [1]): much less effective than that of cisplatin
- Log Pow [2]: 1.24 ± 0.16
- residual complex % in H2O/CH3OH ([3]; 30 min): 99%
- residual complex % in H2O/CH3OH ([3]; 2 h): 92%
- residual complex % in H2O/CH3OH ([3]; 18 h): 43%
- IC50 on healthy MRC-5 cell line compared to the average IC50 values of the cancer cell lines ([4]; 24 h, selectivity): approximately 2 fold
- IC50 [4]: 25.9 ± 2.9 µM
- IC50 [5, 12]: 3.4 ± 0.6 µM
- IC50 [5, 13]: 4 ± 0.7 µM
- IC50 [5, 14]: 3 ± 0.3 µM
- IC50 [5, 15]: 2.8 ± 0.2 µM
- effect on the cell cycle (in words) (A2780 cells [6]): strong depression of the cell number in the synthetic (S) phase and second gap and mitotic phases (G2/M)
- IC50 [7]: 13.4 ± 1.8 µM
- IC50 [8]: 19.8 ± 2.3 µM
- IC50 [9]: 16.1 ± 1.3 µM
- IC50 [10]: 12.6 ± 0.5 µM
- intracellular ROS levels (in words) (A2780 cells [11]): no appreciable effect

Compound: F[B-](F)(F)F.O=[C]=[Ru+]1([CH]2C=CC=C2)[C](=O)[Ru]1(=[C]=O)([CH]=C=C1CCCC1)[CH]1C=CC=C1 (centres unmarked) [3a, [Ru2Cp2(CO)3{μ–η^1:η^2-CH=C=(cyclopentylidene)}]BF4]
- proapoptotic effect, Annexin V/PI (in words) (A2780 cells [1]): much less effective than that of cisplatin
- Log Pow [2]: –0.54 ± 0.02
- residual complex % in H2O/CH3OH ([3]; 2 h): 96%
- residual complex % in H2O/CH3OH ([3]; 18 h): 78%
- IC50 [4]: 38.3 ± 3.9 µM
- IC50 [5, 12]: 4.2 ± 0.9 µM
- IC50 [5, 13]: 3.8 ± 0.7 µM
- IC50 [5, 14]: 3.2 ± 0.2 µM
- IC50 [5, 15]: 3.1 ± 0.2 µM
- effect on the cell cycle (in words) (A2780 cells [6]): strong depression of the cell number in the synthetic (S) phase and second gap and mitotic phases (G2/M)
- IC50 [7]: 22.2 ± 2.4 µM
- IC50 [8]: 28.4 ± 3.9 µM
- IC50 [9]: 25.3 ± 1.9 µM
- IC50 [10]: 14.6 ± 0.5 µM
- intracellular ROS levels (in words) (A2780 cells [11]): noteworthy elevation of intracellular ROS levels
